Patent publication US8865724B2, “Preparation of 2-methyl-4-amino-5(substituted-1H-1,2,3-triazolyl)methylpyrimidine derivatives and microbicidal activity thereof” (Central China Normal University, priority 2011, dated 2014)

| melting point [°C] | Compound |
| --- | --- |
| 185 to 186 | Cc1ncc(Cn2cc(COc3ccc(C#N)cc3)nn2)c(N)n1 [Compound 22] |
| 178 to 180 | Cc1ncc(Cn2nnc(COc3ccccc3[N+](=O)[O-])c2I)c(N)n1 [Compound 80] |
| 145 to 147 | Cc1ncc(Cn2nnc(COc3ccccc3Br)c2I)c(N)n1 [Compound 85] |
| 163 to 165 | Cc1ncc(Cn2cc(COC(=O)COc3ccc(Cl)c(C)c3)nn2)c(N)n1 [Compound 55] |
| 146 to 147 | CCOC(=O)c1ccc(OCc2nnn(Cc3cnc(C)nc3N)c2I)cc1 [Compound 87] |
| 105 to 106 | Cc1ncc(Cn2cc(CNC(=O)COc3ccc(Br)cc3)nn2)c(N)n1 [Compound 74] |
| 132 to 133 | Cc1ccc(C(=O)NCc2cn(Cc3cnc(C)nc3N)nn2)cc1 [Compound 45] |
| 157 to 158 | Cc1ccc(OCc2cn(Cc3cnc(C)nc3N)nn2)cc1 [Compound 17] |
| 138 to 140 | Cc1ncc(Cn2cc(COC(=O)COc3cccc(C(F)(F)F)c3)nn2)c(N)n1 [Compound 62] |
| 143 to 144 | Cc1ncc(Cn2cc(CNC(=O)COc3ccc([N+](=O)[O-])cc3)nn2)c(N)n1 [Compound 73] |
| 144 to 146 | Cc1ncc(Cn2cc(COC(=O)COc3ccc(F)cc3Cl)nn2)c(N)n1 [Compound 60] |
| 153 to 154 | Cc1ncc(Cn2cc(COc3ccccc3C)nn2)c(N)n1 [Compound 18] |
| 167 to 168 | Cc1ncc(Cn2cc(COc3ccc(Br)cc3)nn2)c(N)n1 [Compound 21] |
| 117 to 119 | Cc1ccc(OCC(=O)NCc2cn(Cc3cnc(C)nc3N)nn2)cc1 [Compound 70] |
| 165 to 166 | COc1ccc(OCC(=O)NCc2cn(Cc3cnc(C)nc3N)nn2)cc1 [Compound 75] |
| 145 to 148 | Cc1ncc(Cn2cc(COC(=O)COc3ccc([N+](=O)[O-])cc3Cl)nn2)c(N)n1 [Compound 67] |
| 160 to 161 | Cc1ncc(Cn2cc(COC(=O)COc3cc(Cl)c(Cl)c(Cl)c3)nn2)c(N)n1 [Compound 64] |
| 217 to 219 | Cc1ncc(Cn2nnc(CNC(=O)c3ccc(F)cc3)c2I)c(N)n1 [Compound 104] |
| 125 to 126 | Cc1ncc(Cn2cc(CNC(=O)COc3ccc(F)cc3Cl)nn2)c(N)n1 [Compound 79] |

| melting point [°C] | Compound |
| --- | --- |
| 204 to 206 | Cc1ncc(Cn2nnc(CNC(=O)c3ccccc3F)c2I)c(N)n1 [Compound 105] |
| 129 to 130 | Cc1ncc(Cn2cc(COC(=O)c3ccc([N+](=O)[O-])cc3Cl)nn2)c(N)n1 [Compound 42] |
| 223 to 224 | Cc1ncc(Cn2nnc(CNC(=O)c3ccc([N+](=O)[O-])cc3)c2I)c(N)n1 [Compound 101] |
| 201 to 202 | Cc1ncc(Cn2nnc(COC(=O)c3cccc([N+](=O)[O-])c3)c2I)c(N)n1 [Compound 97] |
| 218 to 220 | Cc1ncc(Cn2nnc(CNC(=O)c3ccccc3)c2I)c(N)n1 [Compound 102] |
| 168 to 169 | Cc1ncc(Cn2cc(CNC(=O)COc3ccccc3)nn2)c(N)n1 [Compound 78] |
| 185 to 187 | Cc1ncc(Cn2nnc(COC(=O)c3cccc(Cl)c3)c2I)c(N)n1 [Compound 90] |
| 149 to 151 | Cc1ccc(OCC(=O)OCc2cn(Cc3cnc(C)nc3N)nn2)cc1 [Compound 57] |
| 185 to 187 | Cc1ncc(Cn2nnc(COC(=O)c3ccccc3Cl)c2I)c(N)n1 [Compound 89] |
| 202 to 204 | Cc1ncc(Cn2nnc(CNC(=O)c3cccc([N+](=O)[O-])c3)c2I)c(N)n1 [Compound 108] |
| 192 to 193 | Cc1ncc(Cn2nnc(COC(=O)c3ccc([N+](=O)[O-])cc3)c2I)c(N)n1 [Compound 95] |
| 187 to 188 | Cc1ncc(Cn2nnc(COC(=O)c3ccccc3F)c2I)c(N)n1 [Compound 93] |
| 145 to 148 | Cc1ncc(Cn2cc(COC(=O)COc3ccc([N+](=O)[O-])cc3)nn2)c(N)n1 [Compound 66] |
| 239 to 240 | Cc1ncc(Cn2cc(CNC(=O)c3ccc([N+](=O)[O-])cc3)nn2)c(N)n1 [Compound 47] |
| 223 to 225 | Cc1ncc(Cn2nnc(COc3ccc([N+](=O)[O-])cc3Cl)c2I)c(N)n1 [Compound 30] |
| 178 to 179 | Cc1ncc(Cn2cc(COc3ccc(F)cc3)nn2)c(N)n1 [Compound 20] |
| 169 to 170 | Cc1ncc(Cn2cc(CNC(=O)COc3cccc(C)c3C)nn2)c(N)n1 [Compound 77] |
| 231 to 233 | Cc1ncc(Cn2nnc(CNC(=O)c3ccc(Cl)cc3)c2I)c(N)n1 [Compound 103] |
| 213 to 214 | Cc1ncc(Cn2cc(CNC(=O)c3cccc(Cl)c3)nn2)c(N)n1 [Compound 50] |

| melting point [°C] | Compound |
| --- | --- |
| 138 to 140 | Cc1ncc(Cn2cc(COC(=O)COc3ccc(Cl)cc3C)nn2)c(N)n1 [Compound 59] |
| 159 to 160 | Cc1ncc(Cn2cc(COC(=O)c3cccc([N+](=O)[O-])c3)nn2)c(N)n1 [Compound 41] |
| 197 to 198 | Cc1ncc(Cn2nnc(CNC(=O)c3cccc(Cl)c3)c2I)c(N)n1 [Compound 99] |
| 186 to 188 | Cc1ncc(Cn2nnc(CNC(=O)c3ccccc3Cl)c2I)c(N)n1 [Compound 100] |
| 183 to 184 | Cc1ncc(Cn2nnc(COC(=O)c3ccc([N+](=O)[O-])cc3Cl)c2I)c(N)n1 [Compound 96] |
| 205 to 206 | Cc1ncc(Cn2cc(CNC(=O)c3ccccc3F)nn2)c(N)n1 [Compound 46] |
| 183 to 184 | Cc1ncc(Cn2nnc(CNC(=O)c3ccc([N+](=O)[O-])cc3Cl)c2I)c(N)n1 [Compound 107] |
| 201 to 202 | Cc1ncc(Cn2cc(CNC(=O)COc3ccccc3Cl)nn2)c(N)n1 [Compound 69] |
| 165 to 167 | Cc1ncc(Cn2cc(CNC(=O)c3ccc(Cl)cc3)nn2)c(N)n1 [Compound 48] |
| 188 to 189 | Cc1ncc(Cn2cc(CNC(=O)c3cccc([N+](=O)[O-])c3)nn2)c(N)n1 [Compound 53] |
| 200 to 202 | Cc1ncc(Cn2nnc(COC(=O)c3ccccc3Br)c2I)c(N)n1 [Compound 98] |
| 128 to 129 | COc1ccc(OCC(=O)OCc2cn(Cc3cnc(C)nc3N)nn2)cc1 [Compound 58] |
| 200 to 202 | Cc1ncc(Cn2nnc(CNC(=O)c3ccccc3Br)c2I)c(N)n1 [Compound 109] |
| 200 to 201 | Cc1ccc(C(=O)OCc2nnn(Cc3cnc(C)nc3N)c2I)cc1 [Compound 92] |
| 168 to 171 | Cc1ncc(Cn2cc(COC(=O)COc3cccc(C)c3C)nn2)c(N)n1 [Compound 63] |
| 107 to 110 | Cc1ncc(Cn2cc(COC(=O)COc3ccc(C(C)(C)C)cc3)nn2)c(N)n1 [Compound 61] |
| 152 to 153 | Cc1ncc(Cn2cc(COC(=O)COc3ccc(Cl)cc3)nn2)c(N)n1 [Compound 56] |
| 176 to 177 | Cc1ncc(Cn2nnc(COc3ccc(Cl)cc3Cl)c2I)c(N)n1 [Compound 83] |
| 58 to 59 | Cc1cccc(OCc2cn(Cc3cnc(C)nc3N)nn2)c1 [Compound 19] |
